According to patent publication US20250255867A1 (Kadmon Corporation, LLC, priority 2022, published 2025):
Where a name gives a salt, the structure may show the parent alone.

Experiments:
[1] = Solubility of belumosudil mesylate; format: physicochemical
[2] = Example 1: plasma pharmacokinetics (Cmax, Tmax, AUC0-6 hr) of belumosudil and metabolites; format: in vivo, human
Experimental: Cmax was the maximum observed plasma concentration, obtained by a non-compartmental analysis. […] Timeframe: Cycles 1 and 2: pre-dose (0 hour), 1, 2, 3, 4, 5, and 6 hours post-dose on Day 1. […] Here, ‘number analyzed’=participants with available data for each specified category.
Tmax was defined as time to reach maximum observed plasma concentration, obtained by a non-compartmental analysis. […] Timeframe: Cycles 1 and 2: pre-dose (0 hour), 1, 2, 3, 4, 5, and 6 hours post-dose on Day 1. Analysis was performed on PK population. Here, ‘number analyzed’=participants with available data for each specified category.
AUC0-6 hr was defined as area under the plasma concentration versus time curve from time 0 to 6 hours post-dose, obtained by a non-compartmental analysis from the concentration-time data. […] Timeframe: Cycles 1 and 2: pre-dose (0 hour), 1, 2, 3, 4, 5, and 6 hours post-dose on Day 1. Analysis was performed on PK population. Here, ‘number analyzed’=participants with available data for each specified category.

[3] = Cohort 1: Belumosudil 200 mg QD, Cycle 1 Day 1
[4] = Cohort 1: Belumosudil 200 mg QD, Cycle 2 Day 1
[5] = Cohort 2: Belumosudil 200 mg BID, Cycle 1 Day 1
[6] = Cohort 2: Belumosudil 200 mg BID, Cycle 2 Day 1
[7] = Cohort 3: Belumosudil 400 mg QD, Cycle 1 Day 1
[8] = Cohort 3: Belumosudil 400 mg QD, Cycle 2 Day 1

| Maximum Observed Plasma Concentration (Cmax), Geometric Mean (Geometric Coefficient of Variation) [2, 3] | Maximum Observed Plasma Concentration (Cmax), Geometric Mean (Geometric Coefficient of Variation) [2, 4] | Maximum Observed Plasma Concentration (Cmax), Geometric Mean (Geometric Coefficient of Variation) [2, 5] | Maximum Observed Plasma Concentration (Cmax), Geometric Mean (Geometric Coefficient of Variation) [2, 6] | Maximum Observed Plasma Concentration (Cmax), Geometric Mean (Geometric Coefficient of Variation) [2, 7] | Maximum Observed Plasma Concentration (Cmax), Geometric Mean (Geometric Coefficient of Variation) [2, 8] | SMILES | Solubility in DMF [1] | Solubility in DMSO [1] | Solubility in methanol [1] | Solubility in water [1] | Area Under the Plasma Concentration Versus Time Curve From Time 0 to 6 Hours Post-dose (AUC0-6 hr), Geometric Mean (Geometric Coefficient of Variation) [2, 3] | Area Under the Plasma Concentration Versus Time Curve From Time 0 to 6 Hours Post-dose (AUC0-6 hr), Geometric Mean (Geometric Coefficient of Variation) [2, 4] | Area Under the Plasma Concentration Versus Time Curve From Time 0 to 6 Hours Post-dose (AUC0-6 hr), Geometric Mean (Geometric Coefficient of Variation) [2, 5] | Area Under the Plasma Concentration Versus Time Curve From Time 0 to 6 Hours Post-dose (AUC0-6 hr), Geometric Mean (Geometric Coefficient of Variation) [2, 6] | Area Under the Plasma Concentration Versus Time Curve From Time 0 to 6 Hours Post-dose (AUC0-6 hr), Geometric Mean (Geometric Coefficient of Variation) [2, 7] | Area Under the Plasma Concentration Versus Time Curve From Time 0 to 6 Hours Post-dose (AUC0-6 hr), Geometric Mean (Geometric Coefficient of Variation) [2, 8] |
| --- | --- | --- | --- | --- | --- | --- | --- | --- | --- | --- | --- | --- | --- | --- | --- | --- |
| – | – | – | – | – | – | CC(C)NC(=O)COc1cccc(-c2nc(Nc3ccc4[nH]ncc4c3)c3ccccc3n2)c1 [Belumosudil mesylate, 2-{3-[4-(1H-indazol-5-ylamino)-2-quinazolinyl]phenoxy}-N-(propan-2-yl) acetamide methanesulfonate (1:1)] | slightly soluble | soluble | slightly soluble | practically insoluble | – | – | – | – | – | – |
| 44.4 (67.9%) nanograms per milliliter | 36.2 (43.0%) nanograms per milliliter | 34.8 (58.8%) nanograms per milliliter | 45.0 (38.6%) nanograms per milliliter | 63.9 (59.4%) nanograms per milliliter | 55.8 (82.1%) nanograms per milliliter | NC(=O)COc1cccc(-c2nc(Nc3ccc4[nH]ncc4c3)c3ccccc3n2)c1 [KD025m1] | – | – | – | – | 140 (72.3%) hours*nanograms per milliliter | 123 (38.2%) hours*nanograms per milliliter | 114 (60.8%) hours*nanograms per milliliter | 160 (31.3%) hours*nanograms per milliliter | 216 (61.9%) hours*nanograms per milliliter | 178 (72.9%) hours*nanograms per milliliter |
| 208 (93.1%) nanograms per milliliter | 158 (150%) nanograms per milliliter | 99.2 (112%) nanograms per milliliter | 145 (147%) nanograms per milliliter | 388 (82.3%) nanograms per milliliter | 265 (154%) nanograms per milliliter | O=C(O)COc1cccc(-c2nc(Nc3ccc4[nH]ncc4c3)c3ccccc3n2)c1 [KD025m2] | – | – | – | – | 565 (90.8%) hours*nanograms per milliliter | 471 (145%) hours*nanograms per milliliter | 282 (125%) hours*nanograms per milliliter | 513 (122%) hours*nanograms per milliliter | 1150 (97.1%) hours*nanograms per milliliter | 923 (144%) hours*nanograms per milliliter |
